Here are results for two compounds from patent US20090253757A1, “Plant protection agents” (priority 1996, published 2009).

In this assay the test system is Erysiphe graminis. The experiment in a line: Activity against Erysiphe graminis on barley (residual protective / systemic). In kind it is in vivo. The source says:
A synergistic effect is present if the activity of the active ingredient combination is greater than the sum of activities of the individual components. The activity E to be expected for a given active ingredient combination obeys the so-called COLBY formula and may be calculated as follows (COLBY, S. R. “Calculating synergistic and antagonistic responses of herbicide combination”. Weeds, Vol. 15, pages 20-22; 1967): ppm=milligrams active ingredient (=ai) per litre spray mixture X=% activity from active ingredient I during application of p ppm of active ingredient Y=% activity from active ingredient II during application of q ppm of active ingredient The expected (additive) activity of active ingredients I+II during application of […] active ingredient is, according to Colby If the activity actually observed (O) is greater than the expected activity (E), then the combination is super-additive in its activity, i.e. there is a synergistic effect ([…] factor). Barley plants of approximately 8 cm height are sprayed until dripping wet with an aqueous spray mixture prepared from wettable powder of the active ingredient mixture, and 3 to 4 hours later are dusted with conidia of the fungus. The infected plants are placed in a greenhouse at […]. 12 days after infection, the fungal attack is evaluated. An aqueous spray mixture prepared from wettable powder of the active ingredient mixture is poured onto barley plants of approximately 8 cm height. […] 48 hours later, the plants are dusted with conidia of the fungus. The infected plants are placed in a greenhouse at 22° C. 12 days after infection, the fungal attack is evaluated.

`CON=C(C(=O)OC)c1ccccc1CON=C(C)c1cccc(C(F)(F)F)c1` [I, 2-[α-{[(α-methyl-3-trifluoromethyl-benzyl)imino]-oxy}-o-tolyl]-glyoxylic acid-methylester-O-methyloxime]: the “% activity found O” value is, setting by setting: (active ingredient I 0.1 mg/litre alone) 6%; (active ingredient I 1.0 mg/litre alone) 30%.
As to `Fc1ccc(Oc2ccnc3cc(Cl)cc(Cl)c23)cc1` [IIA, 5,7-dichloro-4-(4-fluorophenoxy)quinoline], the inhibition at 0.1 µg/mL (Blumeria graminis, active ingredient IIA 0.1 mg/litre alone, read-out: % activity found O) was determined as 4%. The inhibition at 0.5 µg/mL (Blumeria graminis, active ingredient IIA 0.5 mg/litre alone, read-out: % activity found O) turned out to be 6%. For the same compound, the inhibition at 1 µg/mL (Blumeria graminis, active ingredient IIA 1.0 mg/litre alone, read-out: % activity found O) was 8%. Further, the inhibition at 10 µg/mL (Blumeria graminis, active ingredient IIA 10.0 mg/litre alone, read-out: % activity found O) was 21%.
